Data reported in PubChem BioAssay (NCI).
Where “and” joins values, the source holds several entries; their conditions need not be identical. Equal values may be shown once.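 Assay format: 96-well plates, 48-hour exposure. Abbreviation: GI50, concentration required for 50% inhibition of growth. TGI denotes the concentration required for complete inhibition of growth.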

Test system: MDA-MB-468 breast
Test: NCI-60 cell line screen, 48 h

O=c1cc(-c2ccccc2)oc2cc(OCc3cn(Cc4ccc(F)cc4)nn3)cc(O)c12
GI50: 20 µM | TGI: > 100 µM

CCCCn1c(=O)c(/C=C/C(=O)/C=C/c2ccc(O)c(OC)c2)cc2ccc(Cl)cc21
GI50: 1.46 µM | TGI: 4.37 µM

CCN(CC)CCNc1ccc(CO)c2sc3ccccc3c(=O)c12
GI50: 1.25 µM | TGI: 3.03 µM

CC(=O)OC1CC(C)c2c1ncnc2N1CCN(C(=O)OC(C)(C)C)CC1 (configuration not stated)
GI50: 33.9 µM | TGI: > 100 µM

CCN(CCc1ccc(F)cc1)c1ccc(CO)c(Cl)c1
GI50: 0.217 µM | TGI: 0.724 µM

COc1ccc(CNCCCN2C(=O)c3ccc4c5c(ccc(c35)C2=O)C(=O)N(CCCNCCCCNCCCN)C4=O)c(OC)c1OC
GI50: 0.155 µM | TGI: 0.334 µM

CN1CCN(c2ccc(NC3=C(Cl)C(=O)c4ncccc4C3=O)cc2C(F)(F)F)CC1
GI50: 0.746 µM | TGI: 2.69 µM

CN([N-]C(=O)CC(=O)[N-]N(C)C(=S)c1ccccc1)C(=S)c1ccccc1.[Cu+2]
GI50: < 0.01 µM | TGI: 0.0386 µM

C=C(C)[C@@H]1CC[C@]2(C)[C@H](CC=C3[C@@H]4CC(C)(C)CC[C@]4(C(=O)OC)CC[C@]32C)[C@@]1(C)CC/C(N)=N/O
GI50: 1.85 µM | TGI: 5.06 µM

COc1cccc2c1C(=O)c1c(O)c3c(c(O)c1C2=O)C[C@@](O)(C(=O)COC(=O)c1cccnc1)C[C@@H]3OC1CC(N)C(O)C(C)O1 (some centres not stated)
GI50: 0.136 µM | TGI: 0.465 µM

COc1ccc(OC)c(-c2cn3nc(-c4c[nH]c5ccc(Br)cc45)sc3n2)c1
GI50: 2.94 µM | TGI: 8.41 µM

COc1cc(/C=C\c2cc(/C=C\c3ccc(O)c(OC)c3)n(C(=O)Nc3ccc(C(F)(F)F)cc3)n2)ccc1O
GI50: 2.3 µM | TGI: 6.25 µM

COc1ncnc2c1ncn2C/C(Br)=C(\Br)CCl
GI50: 1.56 µM | TGI: 3.29 µM

CCCCCn1ncc(-c2c(O)c(O)cc3c(O)c(-c4c(C)cc5c(-c6cnn(CCCCC)n6)c(O)c(O)cc5c4O)c(C)cc23)n1
GI50: 0.102 µM | TGI: 3.76 µM

CCCCCCCCCCCCCCCC[N+](C)(C)C
GI50: 0.118 µM and 0.328 µM | TGI: 0.361 µM and 1.93 µM

CCc1nc2cc(/C=C/C(=O)NO)c(F)cc2c(=O)n1CCc1ccccc1
GI50: 0.474 µM | TGI: 2.92 µM

CCOc1ccc2c(-c3ccnc(Nc4cccc(C(F)(F)F)c4)n3)cnn2n1
GI50: 1.14 µM | TGI: > 25 µM

COc1ccc(S(=O)(=O)N2CCCCC2)cc1NC(=O)c1[nH]c(C)c2c1CCCCC2=O
GI50: 0.468 µM | TGI: 3.9 µM

C[C@]1(O)CC(=O)[C@]2(O)C3=C(C=C[C@]2(O)C1)C(=O)c1c(O)cccc1C3=O
GI50: 1.7 µM | TGI: 3.87 µM

CCCCCCCCOC(=O)c1cc(O)c(O)c(O)c1
GI50: 3.49 µM | TGI: 16.7 µM

COc1ccccc1NC(=O)N/C(N)=N/c1nc2ccccc2s1
GI50: 0.299 µM | TGI: > 100 µM

CN1CCN(c2ccc3nc(-c4ccc5nc(-c6ccc(C(F)(F)F)cc6)[nH]c5c4)[nH]c3c2)CC1
GI50: 1.85 µM | TGI: 3.65 µM

COc1cc(C)c(N(C)C(=O)CN(C)C)cc1Nc1nc(Nc2cccc(F)c2C(N)=O)c2cc[nH]c2n1
GI50: 14.5 µM | TGI: > 25 µM

Cc1cc2cc(Oc3ccnc(Nc4cccc(CS(=O)(=O)NCCN(C)C)c4)n3)ccc2[nH]1
GI50: 6.49 µM | TGI: 21.3 µM

COc1cc2c(C#N)n3c(c2cc1OC)C(=O)C(c1ccccc1)Oc1ccccc1-3 (configuration not stated)
GI50: 4.68 µM | TGI: > 100 µM

COc1ccc(/C=C2/CCOC2=O)cc1
GI50: > 100 µM | TGI: > 100 µM

COc1ccc(-n2nc(C)c3c(Nc4ccc(NC(=O)Nc5cc(C(F)(F)F)ccc5F)cc4)ncnc32)cc1
GI50: 2.48 µM | TGI: 6.14 µM

N#C/C(=C/c1cccs1)c1cccs1
GI50: 24.1 µM | TGI: > 100 µM

Cc1cc(C)c(S(=O)(=O)Oc2ccccc2[N+](=O)[O-])c(C)c1
GI50: 1.48 µM | TGI: 5.62 µM

CC(=O)O[C@H]1CC[C@]2(C)[C@H]3C(=O)C=C4[C@@H]5C[C@](C)(C(=O)N6CCCNCC6)CC[C@]5(C)CC[C@@]4(C)[C@]3(C)CC[C@H]2C1(C)C
GI50: 1.7 µM | TGI: 3.56 µM

COc1cccc2c1[C@H](OC)[C@]13O[C@@]1(C2=O)[C@H](O)[C@H](C)[C@@](O)(C(=O)[C@@H]1O[C@H]1C)[C@@H]3O
GI50: 0.204 µM | TGI: 0.48 µM
